With `Cc1nc2ccccc2c(=O)n1CCNc1ccc(SC(C)(C)C(=O)O)cc1` [Example 2, 2-Methyl-2-{4-[2-(2-methyl-4-oxo-4H-quinazolin-3-yl)-ethylamino]-phenylsulfanyl}-propionic acid] the melting point was 226 to 228 °C.
`CCc1nc2ccccc2c(=O)n1CCNc1ccc(SC(C)(C)C(=O)O)cc1` [Example 4, 2-{4-[2-(2-Ethyl-4-oxo-4H-quinazolin-3-yl)-ethylamino]-phenylsulfanyl}-2-methyl-propionic acid] gave a melting point of 124 to 126 °C.
`CCCc1nc2ccccc2c(=O)n1CCNc1ccc(SC(C)(C)C(=O)O)cc1` [Example 6, 2-Methyl-2-{4-[2-(4-oxo-2-propyl-4H-quinazolin-3-yl)-ethylamino]-phenylsulfanyl}-propionic acid] gave a melting point of 162 to 164 °C.
With `Cc1nc2ccccc2c(=O)n1CCCNc1ccc(SC(C)(C)C(=O)O)cc1` [Example 8, 2-Methyl-2-{4-[3-(2-methyl-4-oxo-4H-quinazolin-3-yl)-propylamino]-phenylsulfanyl}-propionic acid] the melting point was 162 to 164 °C.
In the case of `CCc1nc2ccccc2c(=O)n1CCCNc1ccc(SC(C)(C)C(=O)O)cc1` [Example 10, 2-{4-[3-(2-Ethyl-4-oxo-4H-quinazolin-3-yl)-propylamino]-phenylsulfanyl}-2-methyl-propionic acid], the melting point was 60 to 62 °C.
With `Cc1nc2ccccc2c(=O)n1CCCCNc1ccc(SC(C)(C)C(=O)O)cc1` [Example 14, 2-Methyl-2-{4-[4-(2-methyl-4-oxo-4H-quinazolin-3-yl)-butylamino]-phenylsulfanyl}-propionic acid] the melting point was 100 to 102 °C.
In the case of `CCc1nc2ccccc2c(=O)n1CCCCNc1ccc(SC(C)(C)C(=O)O)cc1` [Example 16, 2-{4-[4-(2-Ethyl-4-oxo-4H-quinazolin-3-yl)-butylamino]-phenylsulfanyl}-2-methyl-propionic acid], the melting point was 58 to 62 °C.
Work on `CCCc1nc2ccccc2c(=O)n1CCCCNc1ccc(SC(C)(C)C(=O)O)cc1` [Example 18, 2-Methyl-2-{4-[4-(4-oxo-2-propyl-4H-quinazolin-3-yl)-butylamino]-phenylsulfanyl}-propionic acid] yielded a melting point of 100 to 104 °C.
Compound `CCCc1nn(C)c2c(=O)n(CCOc3ccc(NC(C)C(=O)OCC)cc3)c(CC)nc12` (centres unmarked) [Example 19, 2-{4-[2-(5-Ethyl-1-methyl-7-oxo-3-propyl-1,7-dihydro-pyrazolo[4,3-d]pyrimidin-6-yl)-ethoxy]-phenylamino}-propionic acid ethyl ester] has a melting point of 104 to 108 °C.
Work on `CCOC(=O)C(C)(C)Sc1ccc(OCCn2c(C)nc3ccccc3c2=O)cc1` [Example 21, 2-Methyl-2-{4-[2-(2-methyl-4-oxo-4H-quinazolin-3-yl)-ethoxy]-phenylsulfanyl}-propionic acid ethyl ester] yielded a melting point of 114 to 116 °C.
`Cc1nc2ccccc2c(=O)n1CCOc1ccc(SC(C)(C)C(=O)O)cc1` [Example 22, 2-Methyl-2-{4-[2-(2-methyl-4-oxo-4H-quinazolin-3-yl)-ethoxy]-phenylsulfanyl}-propionic acid] gave a melting point of 188 to 190 °C.
Compound `CCc1nc2ccccc2c(=O)n1CCCOc1ccc(SC(C)(C)C(=O)O)cc1` [Example 24, 2-{4-[3-(2-Ethyl-4-oxo-4H-quinazolin-3-yl)-propoxy]-phenylsulfanyl}-2-methyl-propionic acid] has a melting point of 156 to 158 °C.
For `CCOC(=O)C(C)(C)Sc1ccc(OCCCn2c(C)nc3ccccc3c2=O)cc1` [Example 25, 2-Methyl-2-{4-[3-(2-methyl-4-oxo-4H-quinazolin-3-yl)-propoxy]-phenylsulfanyl}-propionic acid ethyl ester], the melting point was 162 to 164 °C.
`Cc1nc2ccccc2c(=O)n1CCCOc1ccc(SC(C)(C)C(=O)O)cc1` [Example 26, 2-Methyl-2-{4-[3-(2-methyl-4-oxo-4H-quinazolin-3-yl)-propoxy]-phenylsulfanyl}-propionic acid] showed a melting point of 144 to 146 °C.
Work on `CCCc1nn(CC)c2c(=O)n(CCCOc3ccc(SC(C)(C)C(=O)O)cc3)c(C)nc12` [Example 28, 2-{4-[3-(1-Ethyl-5-methyl-7-oxo-3-propyl-1,7-dihydro-pyrazolo[4,3-d]pyrimidin-6-yl)-propoxy]-phenylsulfanyl}-2-methyl-propionic acid] yielded a melting point of 118 to 120 °C.
In the case of `CCCc1nn(CC)c2c(=O)n(CCCOc3ccc(SC(C)(C)C(=O)O)cc3)c(CC)nc12` [Example 30, 2-{4-[3-(1,5-Diethyl-7-oxo-3-propyl-1,7-dihydro-pyrazolo[4,3-d]pyrimidin-6-yl)-propoxy]-phenylsulfanyl}-2-methyl-propionic acid], the melting point was 96 to 98 °C.
With `CCCc1nn(C)c2c(=O)n(CCOc3ccc(SC(C)(C)C(=O)OCC)cc3)c(C)nc12` [Example 31, 2-{4-[2-(1,5-Dimethyl-7-oxo-3-propyl-1,7-dihydro-pyrazolo[4,3-d]pyrimidin-6-yl)-ethoxy]-phenylsulfanyl}-2-methyl-propionic acid ethyl ester] the melting point was 106 to 108 °C.
In the case of `CCCc1nn(C)c2c(=O)n(CCOc3ccc(SC(C)(C)C(=O)O)cc3)c(C)nc12` [Example 32, 2-{4-[2-(1,5-Dimethyl-7-oxo-3-propyl-1,7-dihydro-pyrazolo[4,3-d]pyrimidin-6-yl)-ethoxy]-phenylsulfanyl}-2-methyl-propionic acid], the melting point was 182 to 184 °C.
`CCOC(=O)C(C)(C)Sc1ccc(OCCn2c(CC)nc3ccccc3c2=O)cc1` [Example 33, 2-{4-[2-(2-Ethyl-4-oxo-4H-quinazolin-3-yl)-ethoxy]-phenylsulfanyl}-2-methyl-propionic acid ethyl ester] gave a melting point of 120 to 122 °C.
`CCc1nc2ccccc2c(=O)n1CCOc1ccc(SC(C)(C)C(=O)O)cc1` [Example 34, 2-{4-[2-(2-Ethyl-4-oxo-4H-quinazolin-3-yl)-ethoxy]-phenylsulfanyl}-2-methyl-propionic acid] showed a melting point of 148 to 150 °C.
Compound `CCCc1nn(C)c2c(=O)n(CCCOc3ccc(SC(C)(C)C(=O)OCC)cc3)c(C)nc12` [Example 35, 2-{4-[3-(1,5-Dimethyl-7-oxo-3-propyl-1,7-dihydro-pyrazolo[4,3-d]pyrimidin-6-yl)-propoxy]-phenylsulfanyl}-2-methyl-propionic acid ethyl ester] has a melting point of 52 to 54 °C.
Work on `CCCc1nn(C)c2c(=O)n(CCCOc3ccc(SC(C)(C)C(=O)OCC)cc3)c(CC)nc12` [Example 39, 2-{4-[3-(5-Ethyl-1-methyl-7-oxo-3-propyl-1,7-dihydro-pyrazolo[4,3-d]pyrimidin-6-yl)-propoxy]-phenylsulfanyl}-2-methyl-propionic acid ethyl ester] yielded a melting point of 52 to 54 °C.
`CCCc1nn(C)c2c(=O)n(CCCOc3ccc(SC(C)(C)C(=O)O)cc3)c(CC)nc12` [Example 40, 2-{4-[3-(5-Ethyl-1-methyl-7-oxo-3-propyl-1,7-dihydro-pyrazolo[4,3-d]pyrimidin-6-yl)-propoxy]-phenylsulfanyl}-2-methyl-propionic acid] gave a melting point of 115 to 117 °C.
`CCCc1nn(C)c2c(=O)n(CCNc3ccc(SC(C)(C)C(=O)OCC)cc3)c(CC)nc12` [Example 41, 2-{4-[2-(5-Ethyl-1-methyl-7-oxo-3-propyl-1,7-dihydro-pyrazolo[4,3-d]pyrimidin-6-yl)-ethylamino]-phenylsulfanyl}-2-methyl-propionic acid ethyl ester] gave a melting point of 105 to 107 °C.
Work on `CCCc1nn(C)c2c(=O)n(CCNc3ccc(SC(C)(C)C(=O)O)cc3)c(CC)nc12` [Example 42, 2-{4-[2-(5-Ethyl-1-methyl-7-oxo-3-propyl-1,7-dihydro-pyrazolo[4,3-d]pyrimidin-6-yl)-ethylamino]-phenylsulfanyl}-2-methyl-propionic acid] yielded a melting point of 187 to 189 °C.
Compound `CCCc1nn(C)c2c(=O)n(CCOc3ccc(SC(C)(C)C(=O)O)cc3)c(CC)nc12` [Example 44, 2-{4-[2-(5-Ethyl-1-methyl-7-oxo-3-propyl-1,7-dihydro-pyrazolo[4,3-d]pyrimidin-6-yl)-ethoxy]-phenylsulfanyl}-2-methyl-propionic acid] has a melting point of 104 to 106 °C.
Work on `CCCc1nn(CC)c2c(=O)n(CCNc3ccc(SC(C)(C)C(=O)OCC)cc3)c(CC)nc12` [Example 47, 2-{4-[2-(1,5-Diethyl-7-oxo-3-propyl-1,7-dihydro-pyrazolo[4,3-d]pyrimidin-6-yl)-ethylamino]-phenylsulfanyl}-2-methyl-propionic acid ethyl ester] yielded a melting point of 85 to 87 °C.
With `CCCc1nn(CC)c2c(=O)n(CCNc3ccc(SC(C)(C)C(=O)O)cc3)c(CC)nc12` [Example 48, 2-{4-[2-(1,5-Diethyl-7-oxo-3-propyl-1,7-dihydro-pyrazolo[4,3-d]pyrimidin-6-yl)-ethylamino]-phenylsulfanyl}-2-methyl-propionic acid] the melting point was 143 to 145 °C.
In the case of `CCCc1nn(CC)c2c(=O)n(CCOc3ccc(SC(C)(C)C(=O)O)cc3)c(CC)nc12` [Example 50, 2-{4-[2-(1,5-Diethyl-7-oxo-3-propyl-1,7-dihydro-pyrazolo[4,3-d]pyrimidin-6-yl)-ethoxy]-phenylsulfanyl}-2-methyl-propionic acid], the melting point was 123 to 125 °C.
`CCCc1nn(CC)c2c(=O)n(CCOc3ccc(SC(C)(C)C(=O)OCC)cc3)c(C)nc12` [Example 51, 2-{4-[2-(1-Ethyl-5-methyl-7-oxo-3-propyl-1,7-dihydro-pyrazolo[4,3-d]pyrimidin-6-yl)-ethoxy]-phenylsulfanyl}-2-methyl-propionic acid ethyl ester] showed a melting point of 85 to 87 °C.
`CCCc1nn(CC)c2c(=O)n(CCOc3ccc(SC(C)(C)C(=O)O)cc3)c(C)nc12` [Example 52, 2-{4-[2-(1-Ethyl-5-methyl-7-oxo-3-propyl-1,7-dihydro-pyrazolo[4,3-d]pyrimidin-6-yl)-ethoxy]-phenylsulfanyl}-2-methyl-propionic acid] showed a melting point of 178 to 180 °C.
Compound `CCCc1nn(CC)c2c(=O)n(CCOc3ccc(SC(C)(CC)C(=O)O)cc3)c(C)nc12` (centres unmarked) [Example 54, 2-{4-[2-(1-Ethyl-5-methyl-7-oxo-3-propyl-1,7-dihydro-pyrazolo[4,3-d]pyrimidin-6-yl)-ethoxy]-phenylsulfanyl}-2-methyl-butyric acid] has a melting point of 155 to 157 °C.

Reference: patent US20080114005A1, “Fibrate Compounds Having Ppar Agonist Activity” (Dr. Reddy's Laboratories Limited, priority 2004, published 2008)
